Measured values reported in ChEMBL document CHEMBL3885861, “Open TG-GATES”.

Organism: Rattus norvegicus
Assay: Open TG-GATES - Regimen: Single
Format: toxicity, organism-based, Sprague-Dawley
Design: regimen Single, gender Male, age 6 weeks
Settings: in vivo, po, 0 mg/kg, route gavage, dose level Control; for APTT / Bas / Eos / Fbg / Hb / Ht / Lym / MCH / MCHC / MCV / Mono / Neu / PT / Plat / RBC / Ret / WBC: tissue Blood; for KIDNEY_L / KIDNEY_R / KIDNEY_TOTAL: tissue Kidney; for LIVER: tissue Liver; for A/G / ALP / ALT / AST / BUN / CRE / Ca / Cl / DBIL / GLC / IP / K / LDH / Na / PL / RALB / TBIL / TC / TG / TP / gamma-GTP: tissue Plasma

Structure (SMILES): CCc1cc(C(N)=S)ccn1 [ETHIONAMIDE]
- TERMINAL_BW (3 h): 229.3 g
- APTT (3 h): 16.6 s
- Bas (3 h): 0%
- Eos (3 h): 1%
- Fbg (3 h): 213.4 mg/dL
- Hb (3 h): 14 g/dL
- Ht (3 h): 41.5%
- Lym (3 h): 80.2%
- MCH (3 h): 22.1 pg
- MCHC (3 h): 33.8%
- MCV (3 h): 65.5 fL
- Mono (3 h): 7.2%
- Neu (3 h): 11.6%
- PT (3 h): 11.7 s
- Plat (3 h): 118.5 x10_4/uL
- RBC (3 h): 635.2 x10_4/ul
- Ret (3 h): 7.7%
- WBC (3 h): 98.2 x10_2/uL
- KIDNEY_L (3 h): 1 g
- KIDNEY_R (3 h): 1.1 g
- KIDNEY_TOTAL (3 h): 2.1 g
- LIVER (3 h): 11.4 g
- A/G (3 h): 1.8
- ALP (3 h): 831 IU/L
- ALT (3 h): 31.8 IU/L
- AST (3 h): 64.6 IU/L
- BUN (3 h): 13.6 mg/dL
- CRE (3 h): 0.6 mg/dL
- Ca (3 h): 10.9 mg/dL
- Cl (3 h): 104.8 meq/L
- DBIL (3 h): 0.006 mg/dL
- GLC (3 h): 192.4 mg/dL
- IP (3 h): 8.2 mg/dL
- K (3 h): 4.6 meq/L
- LDH (3 h): 72.6 IU/L
- Na (3 h): 141 meq/L
- PL (3 h): 152.2 mg/dL
- RALB (3 h): 3.5 g/dL
- TBIL (3 h): 0.3 mg/dL
- TC (3 h): 82 mg/dL
- TG (3 h): 86.2 mg/dL
- TP (3 h): 5.4 g/dL
- gamma-GTP (3 h): 1 IU/L
- TERMINAL_BW (6 h): 223.7 g
- APTT (6 h): 18.2 s
- Bas (6 h): 0%
- Eos (6 h): 1%
- Fbg (6 h): 221.6 mg/dL
- Hb (6 h): 14.1 g/dL
- Ht (6 h): 41.9%
- Lym (6 h): 80.6%
- MCH (6 h): 21.8 pg
- MCHC (6 h): 33.5%
- MCV (6 h): 65.2 fL
- Mono (6 h): 7.6%
- Neu (6 h): 11.2%
- PT (6 h): 12.1 s
- Plat (6 h): 124.1 x10_4/uL
- RBC (6 h): 644 x10_4/ul
- Ret (6 h): 7.8%
- WBC (6 h): 114.3 x10_2/uL
- KIDNEY_L (6 h): 1 g
- KIDNEY_R (6 h): 1 g
- KIDNEY_TOTAL (6 h): 2 g
- LIVER (6 h): 10.5 g
- A/G (6 h): 1.6
- ALP (6 h): 729.4 IU/L
- ALT (6 h): 29.6 IU/L
- AST (6 h): 63.6 IU/L
- BUN (6 h): 12 mg/dL
- CRE (6 h): 0.5 mg/dL
- Ca (6 h): 11 mg/dL
- Cl (6 h): 104 meq/L
- DBIL (6 h): 0 mg/dL
- GLC (6 h): 187.6 mg/dL
- IP (6 h): 9.4 mg/dL
- K (6 h): 5 meq/L
- LDH (6 h): 87.8 IU/L
- Na (6 h): 139 meq/L
- PL (6 h): 150 mg/dL
- RALB (6 h): 3.3 g/dL
- TBIL (6 h): 0.4 mg/dL
- TC (6 h): 82.4 mg/dL
- TG (6 h): 86.6 mg/dL
- TP (6 h): 5.4 g/dL
- gamma-GTP (6 h): 1.2 IU/L
- TERMINAL_BW (9 h): 223.4 g
- APTT (9 h): 17.3 s
- Bas (9 h): 0%
- Eos (9 h): 1%
- Fbg (9 h): 213.8 mg/dL
- Hb (9 h): 13.9 g/dL
- Ht (9 h): 41%
- Lym (9 h): 71%
- MCH (9 h): 21.8 pg
- MCHC (9 h): 33.9%
- MCV (9 h): 64.3 fL
- Mono (9 h): 7%
- Neu (9 h): 21.4%
- PT (9 h): 12.1 s
- Plat (9 h): 115.1 x10_4/uL
- RBC (9 h): 639.6 x10_4/ul
- Ret (9 h): 7.9%
- WBC (9 h): 97.9 x10_2/uL
- KIDNEY_L (9 h): 1.1 g
- KIDNEY_R (9 h): 1 g
- KIDNEY_TOTAL (9 h): 2.1 g
- LIVER (9 h): 9.8 g
- A/G (9 h): 1.9
- ALP (9 h): 759.2 IU/L
- ALT (9 h): 31.2 IU/L
- AST (9 h): 59.2 IU/L
- BUN (9 h): 13.2 mg/dL
- CRE (9 h): 0.5 mg/dL
- Ca (9 h): 10.4 mg/dL
- Cl (9 h): 107 meq/L
- DBIL (9 h): 0.024 mg/dL
- GLC (9 h): 194.8 mg/dL
- IP (9 h): 10.2 mg/dL
- K (9 h): 4.7 meq/L
- LDH (9 h): 66.6 IU/L
- Na (9 h): 143.4 meq/L
- PL (9 h): 126.8 mg/dL
- RALB (9 h): 3.6 g/dL
- TBIL (9 h): 0.4 mg/dL
- TC (9 h): 65.8 mg/dL
- TG (9 h): 47.8 mg/dL
- TP (9 h): 5.4 g/dL
- gamma-GTP (9 h): 1.2 IU/L
- TERMINAL_BW (24 h): 237.2 g
- APTT (24 h): 16.3 s
- Bas (24 h): 0%
- Eos (24 h): 1.2%
- Fbg (24 h): 214.4 mg/dL
- Hb (24 h): 13.9 g/dL
- Ht (24 h): 41.1%
- Lym (24 h): 75.6%
- MCH (24 h): 21.8 pg
- MCHC (24 h): 33.7%
- MCV (24 h): 64.7 fL
- Mono (24 h): 7.6%
- Neu (24 h): 15.6%
- PT (24 h): 11.7 s
- Plat (24 h): 117.8 x10_4/uL
- RBC (24 h): 635.6 x10_4/ul
- Ret (24 h): 7.8%
- WBC (24 h): 117.6 x10_2/uL
- KIDNEY_L (24 h): 1 g
- KIDNEY_R (24 h): 1 g
- KIDNEY_TOTAL (24 h): 2.1 g
- LIVER (24 h): 11.8 g
- A/G (24 h): 1.9
- ALP (24 h): 856.4 IU/L
- ALT (24 h): 40.8 IU/L
- AST (24 h): 70.6 IU/L
- BUN (24 h): 20 mg/dL
- CRE (24 h): 0.6 mg/dL
- Ca (24 h): 11 mg/dL
- Cl (24 h): 104.4 meq/L
- DBIL (24 h): 0.016 mg/dL
- GLC (24 h): 200.2 mg/dL
- IP (24 h): 8.1 mg/dL
- K (24 h): 4.7 meq/L
- LDH (24 h): 77.8 IU/L
- Na (24 h): 141.2 meq/L
- PL (24 h): 151.8 mg/dL
- RALB (24 h): 3.6 g/dL
- TBIL (24 h): 0.3 mg/dL
- TC (24 h): 79.8 mg/dL
- TG (24 h): 90.6 mg/dL
- TP (24 h): 5.5 g/dL
- gamma-GTP (24 h): 1.6 IU/L
